# Assay results published in article PMC6329626 (British Journal of Pharmacology, 2018).
# Read-outs that look alike come from different tables or passages of the source.
# B1: recombinant human CYP3A7 (Homo sapiens) (protein)
# chain: MDLIPNLAVETWLLLAVSLILLYLYGTRTHGLFKKLGIPGPTPLPFLGNALSFRKGYWTFDMECYKKYRKVWGIYDCQQPMLAITDPDMIKTVLVKECYSVFTNRRPFGPVGFMKNAISIAEDEEWKRIRSLLSPTFTSGKLKEMVPIIAQYGDVLVRNLRREAETGKPVTLKHVFGAYSMDVITSTSFGVSIDSLNNPQDPFVENTKKLLRFNPLDPFVLSIKVFPFLTPILEALNITVFPRKVISFLTKSVKQIKEGRLKETQKHRVDFLQLMIDSQNSKDSETHKALSDLELMAQSIIFIFAGYETTSSVLSFIIYELATHPDVQQKVQKEIDTVLPNKAPPTYDTVLQLEYLDMVVNETLRLFPVAMRLERVCKKDVEINGMFIPKGVVVMIPSYVLHHDPKYWTEPEKFLPERFSKKNKDNIDPYIYTPFGSGPRNCIGMRFALVNMKLALVRVLQNFSFKPCKETQIPLKLRFGGLLLTEKPIVLKAESRDETVSGA
# Assays:
# recombinant human CYP3A4 = recombinant human CYP3A4 (Homo sapiens, UniProt P08684); assay: Enzyme kinetics of flucloxacillin hydroxylation by CYP3A4 Supersomes; details: 100 nM CYP3A4 Supersomes, 10 min
# pooled HLM [1] = assay: Enzyme kinetics of 5′-HM-FLX formation from flucloxacillin by pooled HLM; format: in vitro ADME, human; details: 0.5 mg·mL^−1 pooled HLM, 10 min, Michaelis–Menten fit
# HLM from 16 donors = format: in vitro ADME, human; details: for Pearson's r, FLX hydroxylation vs phenacetin O-deethylation: CYP1A2; for Pearson's r, FLX hydroxylation vs coumarin 7-hydroxylation: CYP2A6; for Pearson's r, FLX hydroxylation vs diclofenac 4′-hydroxylation: CYP2C9
# [2] = read-out: Average Cmax in patients; patients taking 1000 mg orally; cited from earlier work
# biliary epithelial cells = details: ref Lakehal et al., 2001; cited from earlier work
# pooled HLM [3] = assay: Inhibition of 5′-HM-FLX formation by pooled HLM by CYP-specific inhibitors; format: biochemical, human; details: 10 μM inhibitor; pooled HLM
# [4] = system: CYP3A (flucloxacillin 5′-hydroxylation); assay: as above; format: biochemical, human; details: human, pooled human liver microsomes, probe flucloxacillin (formation of 5′-HM-FLX), 10 and 100 μM
# HLM [5] = details: 25 μM sulfaphenazole; ref Lakehal et al., 2001; cited from earlier work
# HLM [6] = details: ref Towles et al., 2016; cited from earlier work
# recombinant CYP3A7 = recombinant CYP3A7 (Homo sapiens, UniProt P24462); assay: Inhibition by sulfaphenazole of CYP3A7 Supersomes; format: biochemical; details: testosterone 50 μM
# [7] = target: CYP3A4 (testosterone 6β-hydroxylation) in HLM (Homo sapiens, UniProt P08684); assay: Inhibition by sulfaphenazole of testosterone hydroxylation in HLM; format: biochemical
# [8] = substrate: Cc1onc(-c2c(F)cccc2Cl)c1C(=O)N[C@@H]1C(=O)N2[C@@H]1SC(C)(C)[C@@H]2C(=O)O; assay: cells, lysate or membranes named; format: in vitro ADME, human; details: other: 100 nM CYP3A7 Supersomes, 10 min; pH 7.4; 37.0 °C
# Sequence of recombinant human CYP3A4 (P08684 whole entry): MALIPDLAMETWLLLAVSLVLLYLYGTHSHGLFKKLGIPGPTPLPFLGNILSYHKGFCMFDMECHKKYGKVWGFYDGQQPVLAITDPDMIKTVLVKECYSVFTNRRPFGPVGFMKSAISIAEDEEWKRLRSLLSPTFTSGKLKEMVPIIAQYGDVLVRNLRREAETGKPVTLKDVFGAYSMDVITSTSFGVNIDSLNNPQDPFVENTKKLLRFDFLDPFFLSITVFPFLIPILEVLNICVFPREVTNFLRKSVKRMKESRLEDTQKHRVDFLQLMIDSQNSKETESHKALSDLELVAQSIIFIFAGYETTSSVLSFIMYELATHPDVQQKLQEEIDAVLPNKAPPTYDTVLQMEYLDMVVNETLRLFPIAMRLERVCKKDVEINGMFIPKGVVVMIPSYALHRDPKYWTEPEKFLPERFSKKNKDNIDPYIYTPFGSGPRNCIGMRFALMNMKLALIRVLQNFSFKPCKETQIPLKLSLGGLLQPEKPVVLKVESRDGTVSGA
# Sequence of CYP3A4 (testosterone 6β-hydroxylation) in HLM (P08684 whole entry): as above
molecule,measurement,setting,value
Cc1onc(-c2c(F)cccc2Cl)c1C(=O)N[C@@H]1C(=O)N2[C@@H]1SC(C)(C)[C@@H]2C(=O)O [flucloxacillin],K M of 5′-HM-FLX formation,recombinant human CYP3A4,124 ± 15 µM
same,K M of 5′-HM-FLX formation,pooled HLM [1],284 ± 38 µM
same,Vmax of 5′-HM-FLX formation,pooled HLM [1],30 ± 2 pmol·min^−1·mg^−1 protein
same,"Pearson's r, FLX hydroxylation vs phenacetin O-deethylation",HLM from 16 donors; 10 μM FLX,0.04
same,"Pearson's r, FLX hydroxylation vs phenacetin O-deethylation",HLM from 16 donors; 100 μM FLX,0.10
same,"Pearson's r, FLX hydroxylation vs coumarin 7-hydroxylation",HLM from 16 donors; 10 μM FLX,0.45
same,"Pearson's r, FLX hydroxylation vs coumarin 7-hydroxylation",HLM from 16 donors; 100 μM FLX,0.45
same,"Pearson's r, FLX hydroxylation vs amodiaquine N-deethylation","HLM from 16 donors; CYP2C8, 10 μM FLX",0.50
same,"Pearson's r, FLX hydroxylation vs diclofenac 4′-hydroxylation",HLM from 16 donors; 10 μM FLX,0.78
same,"Pearson's r, FLX hydroxylation vs diclofenac 4′-hydroxylation",HLM from 16 donors; 100 μM FLX,0.58
same,"Pearson's r, FLX hydroxylation vs mephenytoin 4′-hydroxylation","HLM from 16 donors; CYP2C19, 10 μM FLX",0.45
same,"Pearson's r, FLX hydroxylation vs midazolam 1′-hydroxylation","HLM from 16 donors; CYP3A4, 10 μM FLX",0.58
same,"Pearson's r, FLX hydroxylation vs testosterone 6β-hydroxylation","HLM from 16 donors; CYP3A4, 10 μM FLX",0.69
same,Cmax,[2],100 µM
same,Cytotoxicity to isolated biliary epithelial cells,biliary epithelial cells,without effect
COCCCC/C(=N\OCCN)c1ccc(C(F)(F)F)cc1 [fluvoxamine],Inhibition of 5′-HM-FLX formation,pooled HLM [3],did not show significant inhibition
CC(=O)N1CCN(c2ccc(OCC3COC(Cn4ccnc4)(c4ccc(Cl)cc4Cl)O3)cc2)CC1 (stereo not shown) [ketoconazole],inhibition at 1 μM,[4],50%
Nc1ccc(S(=O)(=O)Nc2ccnn2-c2ccccc2)cc1 [sulfaphenazole],Inhibition of HLM-catalysed hydroxylation of flucloxacillin,HLM [5],no inhibition
same,Inhibition of bioactivation of hydroxylapatinib by HLM,HLM [6],significantly inhibited
same,Inhibition of 6β-hydroxylation of testosterone,recombinant CYP3A7,not affected
same,Inhibition of testosterone hydroxylation,[7],but not testosterone hydroxylation
B1,kcat,[8],193 ± 7 pmol·min^−1·nmol^−1 P450
